{"source": "patent US4843161A", "about": "“Platinum-intercalative complexes for the treatment of cancer” (Massachusetts Institute of Technology, priority 1984, dated 1989)", "key": {"[1]": {"test_system": "L1210/PDD", "test": "antitumor activity in mice implanted with a tumor cell line resistant to cisDDP (Table III)", "assay_type": "in vivo", "conditions": "q4d × 4"}, "[2]": {"test_system": "L1210/0", "test": "antitumor activity in mice implanted intraperitoneally with L1210 (Table II)", "assay_type": "in vivo", "parameters": "Mean: unit not given beside the values", "conditions": "d 1, 5, 9, 13", "experimental": "The optimal dose is 15 mg/kg giving a %ILS of 51% versus control mice implanted with L1210 but not treated with the drug."}}}
{"smiles": "N.N.[Cl][Pt][Cl]", "note": "[CisDDP, cis-diamminedichloroplatinum (II)]", "values": [{"measurement": "ILS", "setting": "[1]; dose 2.0", "value": 0, "unit": "%"}, {"measurement": "Mean", "setting": "[1]; dose 2.0", "value": 11.0}, {"measurement": "ILS", "setting": "[1]; dose 3.0", "value": 0, "unit": "%"}, {"measurement": "Mean", "setting": "[1]; dose 3.0", "value": 10.8}, {"measurement": "ILS", "setting": "[1]; dose 4.5", "value": 0, "unit": "%"}, {"measurement": "Mean", "setting": "[1]; dose 4.5", "value": 11.0}, {"measurement": "ILS", "setting": "[2]; first L1210/0 group, dose 3", "value": 34, "unit": "%"}, {"measurement": "Mean", "setting": "[2]; first L1210/0 group, dose 3", "value": 11.9}, {"measurement": "ILS", "setting": "[2]; second L1210/0 group, dose 2.0", "value": 26, "unit": "%"}, {"measurement": "Mean", "setting": "[2]; second L1210/0 group, dose 2.0", "value": 11.6}, {"measurement": "ILS", "setting": "[2]; second L1210/0 group, dose 3.0", "value": 51, "unit": "%"}, {"measurement": "Mean", "setting": "[2]; second L1210/0 group, dose 3.0", "value": 13.9}, {"measurement": "ILS", "setting": "[2]; second L1210/0 group, dose 4.5", "value": 113, "unit": "%"}, {"measurement": "Mean", "setting": "[2]; second L1210/0 group, dose 4.5", "value": 19.6}]}
